Assays:
[1] = test system: LPA2 DKO MEF cells; assay: Adriamycin-induced caspase 3/7 activation in LPA2 DKO MEF and EV DKO MEF cells; format: cell-based, mouse; details: 1-3 μM, 1 h before Adriamycin
Protocol: (§1) Mouse embryonic fibroblast (MEF) cells used in this study isolated from LPA1/2 double knock out (LPA2-DKO) mice {Lin, 2007 #132}. These MEF express LPA4/5/6 receptors endogenously at lower levels but completely lack LPA1/2/3 receptor subtypes. The human LPA2 receptor was reintroduced into these MEF cells by lentiviral transduction, which are designated LPA2 DKO MEF {Lin, 2007 #132}. Empty vector-transduced MEF cells, designates as EV DKO MEF, were used as a control. Cells were cultured in a DMEM supplemented with 10% v/v fetal bovine serum (FBS), 2 mM L-glutamine, 100 U/ml penicillin, and 100 μg/mL streptomycin. During serum starvation, the growth medium was replaced with DMEM containing 0.1% (w/v) BSA.
(§2) The cells were plated in 48 well plates (2×10^4 cells/well) and cultured overnight in full growth medium. Next morning the growth medium was replaced by serum-free starvation medium and cells were pretreated for 1 hour with LPA (1 or 3 μM), compound 5b or 7b (1, 3 or 10 μM). Apoptosis was elicited by 1.7 μM Adriamycin in vector and LPA2 transduced MEF cells. Caspase 3, 7, 8, 9 activity and DNA fragmentation were measured to assess apoptosis 5 h after Adriamycin exposure.
To measure caspase activation the cells were lysed in 50 μl Caspase-Glow® reagent (Caspase 3/7, 8, 9 Promega, Madison, Wis.). The cells were shaken with the caspase reagent for 30 min at room temperature (RT). After 30 min, the luminescence was measured using a BioTek (Winooski, Vt.) plate reader. The mean caspase activity in triplicates/experimental group±SD was calculated. LPA was used as a positive control in all experiments.

[2] = test system: LPA2 DKO MEF cells; assay: Adriamycin-induced DNA fragmentation in LPA2 DKO MEF and EV DKO MEF cells; format: cell-based, mouse
Protocol: as §1, §2
DNA fragmentation was quantified by using the Cell Death Detection ELISA assay kit (Roche Diagnostics, Penzberg, Germany). 20 μl cell lysate was incubated with the anti-histone-biotin anti-DNA-peroxidase-conjugated antibody in a 96-well streptavidin-coated plate with shaking at RT for 2 h. After washing the wells three-times with the incubation buffer, 100 μl/well 2,2′-azino-di(3-ethylbenzthiazolin-sulfonate) substrate was added and the absorbance was measured at 405 nm. Protein concentration was measured using BCA Protein Assay Kit (Thermo Fisher Scientific Inc., Rockford, Ill.). DNA fragmentation was expressed as absorbance units/mg protein. LPA was used as a positive control in all experiments.

[3] = test system: C57BL/6 mice; assay: Radiation-induced mortality, 15.68 Gy PBI-BM5; format: in vivo, mouse; details: 15.68 Gy PBI-BM5, single 1 mg/kg s.c. 24 h after irradiation
Protocol: 10-week old female C57BL/6 mice were exposed to a 15.68 Gy (˜LD60/8-10) dose of γ-irradiation from a ^137Cs Source. Twenty four hours after irradiation mice were treated with a single 200 μL subcutaneous injection of 1 mg/kg of the test compounds 5b, 7a, and 7b dissolved in 0.8% DMSO, 1% ethanol, 2% propanediol in PBS buffer. The animals were observed daily and provided with food and water ad libitum. Form day four onward the mice also were provided with a gel food diet. The study endpoint was mortality by day 20.

[4] = molecular target: T1, LPA2 (Homo sapiens, UniProt Q9HBW0); assay: LPA receptor-mediated Ca2+ mobilization assay, LPA2 (RH7777 cells stably expressing LPA2); format: cell-based; set-up: expressed in transfected cells; details: Ca2+ transients, RH7777 cells stably expressing LPA2; for EC50: read-out: EC50 (μM) (RH7777)
T1 sequence (Q9HBW0 whole entry): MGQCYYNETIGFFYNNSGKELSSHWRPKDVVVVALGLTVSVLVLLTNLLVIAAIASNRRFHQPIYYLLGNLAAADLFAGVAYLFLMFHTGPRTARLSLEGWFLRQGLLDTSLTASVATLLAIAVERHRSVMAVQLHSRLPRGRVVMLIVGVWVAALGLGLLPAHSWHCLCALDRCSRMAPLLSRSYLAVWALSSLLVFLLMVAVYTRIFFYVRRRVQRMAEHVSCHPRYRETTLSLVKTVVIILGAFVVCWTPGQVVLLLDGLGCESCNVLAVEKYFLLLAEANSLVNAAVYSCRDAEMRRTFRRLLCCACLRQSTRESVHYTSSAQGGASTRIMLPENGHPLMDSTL
Protocol: Similarity searches were performed separately using each fingerprint to quantitate similarity. Hits meeting the 80% similarity threshold from each search were ranked based on the Tanimoto coefficient measure of similarity to a target molecule NSC12404, and the top 75 unique hits from each fingerprint search were selected for further analysis. […] This selected a diverse subset of 27 compounds for biological evaluation by choosing the middle compounds in each cluster. These 27 compounds were tested in Ca^2+ mobilization assays at a concentration of 10 μM using stable cell lines individually expressing LPA2 and also in vector-transfected control cells. Hits activating LPA2 were further tested using cells expressing the other established and putative LPA GPCRs. […] They arbitrarily selected GRI977143 for further characterization in cell-based assays.
The newly-synthesized compounds were tested for their ability to induce Ca^2+ transients in RH7777 cells stably expressing the LPA2 receptor.
The cells were loaded with Fura-2-acetoxymethyl esther (Fura-2/AM) in Krebs buffer containing 0.01% pluronic acid for 30 min and rinsed with Krebs buffer before measuring Ca^2+ mobilization. The ratio of peak emissions at 510 nm after 2 min of ligand addition was determined for excitation wavelengths of 340 nm/380 nm. All samples were run in quadruplicate. […] The half maximally effective concentration (EC50), and inhibitory constant (Ki) values were calculated by fitting a sigmoid function to dose-response data points using KaleidaGraph software (version 4.1, Synergy Software; […]).
Mouse embryonic fibroblast (MEF) cells were isolated from E13.5 LPA1&2 double knockout (DKO) embryos. MEFs were transduced with empty vector or LPA2-containing lentiviruses and selected with 1.5 μg/ml puromycin. Cells were maintained in Dulbecco's modified Eagle medium (DMEM) supplemented with 10% (V/V) fetal bovine serum (FBS), 2 mM L-glutamine, 100 U/mL penicillin, and 100 μg/mL streptomycin. Serum-free medium contained 0.1% (W/V) BSA in DMEM. The rat intestinal epithelial cell line 6 (IEC-6) was obtained from the American Type Culture Collection (Rockville, Md.) at passage 13; passages 16-21 were used in all experiments. IEC-6 cells were maintained in a humidified 37° C. incubator in an atmosphere of 90% air and 10% CO2. Growth medium consisted of DMEM supplemented with 5% heat inactivated FBS, 10 μg/mL insulin, and 50 μg/mL gentamycin. The composition of the serum-starvation medium was the same as that of the full growth medium except that it contained no FBS. The McArdle rat hepatoma cell line (RH7777) stably expressing LPA2 receptors was a gift from Dr. Fumikazu Okajima (Gunma University, Maebashi, Japan). RH7777 cells stably expressing LPA1 or LPA3 receptors were generated in-house and had been characterized earlier. Wild type and LPA receptor (LPAR) stably transfected RH7777 cells were grown in DMEM supplemented with 10% FBS and 2 mM L-glutamine in the presence of 250 μg/ml G418. Chinese hamster ovary (CHO) cells stably expressing either vector or LPA4 receptor were a kind gift from Dr. Takao Shimizu (Tokyo University; Tokyo, Japan). Cells were cultured in Ham's F12 medium containing 10% FBS, 2 mM L-glutamine, and 350 μg/ml G418. Rat neuroblastoma cells (B103) were transduced with the lentivirus harboring wild type of FLAG-LPA5 and selected with puromycin to establish the stable cell lines. The stable cells were maintained in DMEM supplemented with 10% FBS and 0.4 μg/ml puromycin. GPR87- and P2Y10-expressing CHO cells and vector-transfected control cells were a gift from Dr. Norihisha Fujita (Ritsumeikan University; Shiga, Japan). The highly invasive MM1 rat hepatoma cells (gift from Dr. Michiko Mukai, Osaka University, Japan) were grown in suspension in DMEM supplemented with 10% (V/V) FBS, 2 mM L-glutamine, 100 U/mL penicillin, and 100 μg/mL streptomycin.

[5] = molecular target: T1, LPA2; assay: Fura-2AM Ca2+ mobilization in LPA2 DKO MEF cells; format: cell-based; set-up: expressed in transfected cells; host or cells: mouse embryonic fibroblasts from LPA1/2 double-knockout mice, lentiviral transduction; details: for EC50: DKO MEF; for Emax: MEF
Protocol: (§3) Fluorescence was read every 3.42 seconds for a total of 70 seconds at Ex/Emλ of 340/510 nm and 380/510 nm. Data (relative fluorescence) was then recorded as a mean fluorescence ratio value of the triplicates for each concentration. Graph Pad Prism version 5.0a was then used to fit a non-linear regression curve in a variable slope model (A) to determine the EC50, Emax, and curve fit (R^2)(B).
as §1, §3

Compound	caspase-3/7 activation (apoptosis) ([1]; EV DKO MEF)	caspase-3/7 activation (apoptosis) ([1]; LPA2 DKO MEF)	protection from DNA fragmentation ([2]; EV DKO MEF cells)	reduction of DNA fragmentation ([2]; LPA2 DKO MEF, 10 μM, 60 min pretreatment, Adriamycin)	protection from Adriamycin induced DNA fragmentation ([2]; LPA2 transduced cells, 3 μM)	mortality by day 20 [3]	EC50 [4]	Emax [4]	EC50 [5]	Emax [5]
O=C(O)c1ccccc1S(=O)(=O)NCCCN1C(=O)c2cccc3cccc(c23)C1=O [Compound 5a, 2-[3-(1,3-Dioxo-1H,3H-benzo[de]isoquinolin-2-yl)propylsulfamoyl]benzoic acid]	not in EV DKO MEF cells	significantly reduced apoptosis	no protection	~50%	selectively protected	significantly reduced mortality	2.2 µM	–	–	–
O=C(O)c1ccccc1S(=O)(=O)NCCCCN1C(=O)c2cccc3cccc(c23)C1=O [Compound 5b, 2-[4-(1,3-Dioxo-1H,3H-benzo[de]isoquinolin-2-yl)butylsulfamoyl]benzoic acid]	–	–	–	–	–	–	0.5 µM	100%	0.5 µM	100%
O=C(O)c1ccccc1S(=O)(=O)NCCCCCN1C(=O)c2cccc3cccc(c23)C1=O [Compound 5c]	–	–	–	–	–	–	1.2 µM	100%	–	–
O=C(O)c1ccc([N+](=O)[O-])cc1S(=O)(=O)NCCCCN1C(=O)c2cccc3cccc(c23)C1=O [Compound 7a, 2-(N-(4-(1,3-dioxo-1H-benzo[de]isoquinolin-2(3H)-yl)butyl)sulfamoyl)-4-nitrobenzoic acid]	–	–	–	–	–	significantly reduced mortality	> 10 µM	–	> 10 µM	–
O=C(O)c1ccc(Br)cc1S(=O)(=O)NCCCCN1C(=O)c2cccc3cccc(c23)C1=O [Compound 7b, 4-bromo-2-(N-(4-(1,3-dioxo-1H-benzo[de]isoquinolin-2(3H)-yl)butyl)sulfamoyl) benzoic acid]	not in EV DKO MEF cells	significantly reduced apoptosis	–	–	–	ineffective	1 µM	100%	0.4 µM	100%
COc1ccc(C(=O)O)c(S(=O)(=O)NCCCCN2C(=O)c3cccc4cccc(c34)C2=O)c1 [Compound 7c, 2-(N-(4-(1,3-dioxo-1H-benzo[de]isoquinolin-2(3H)-yl)butyl)sulfamoyl)-4-methoxybenzoic acid]	–	–	–	–	–	–	> 10 µM	–	–	–
O=C(O)c1ccc2c(c1)S(=O)(=O)N(CCCCN1C(=O)c3cccc4cccc(c34)C1=O)C2=O [Compound 9, 2-(4-(1,3-dioxo-1H-benzo[de]isoquinolin-2(3H)-yl)butyl)-3-oxo-2,3-dihydrobenzo[d]isothiazole-6-carboxylic acid 1,1-dioxide]	–	–	–	–	–	–	3.6 µM	75%	–	–

From patent publication US9056835B2, “LPA2 receptor-specific benzoic acid derivatives” (University of Tennessee Research Foundation, priority 2012, dated 2015)
